Patent publication US20050130968A1, “Fungicidal 4-(2-aminopyridin-4-yl)-N-phenyl-1,3,5-triazin-2-amine derivatives” (priority 2003, published 2005)

Key:
Cochliobolus sativus = experiment: Spot Blotch of Wheat 1-day protectant test (COCHSA); format: in vivo; conditions: Bipolaris sorokiniana, 24 h; one-day protectant test, 200 ppm application rate, wheat plants (variety Yuma); read-out: COCHSA control of disease
Procedure: The technical compounds were formulated at 200 ppm in 10 vol. acetone plus 90 vol. Triton X water (deionized water 99.99 wt. % +0.01 wt. Triton X100), giving a “formulated test compound.” The compounds were tested for ability to control plant diseases at the whole plant level in a 1-day protectant test (IDP). Formulated test compounds were applied to plants using a turn table sprayer fitted with two opposing air atomization nozzles which delivered approximately 1500 L/ha of spray volume. Plants were inoculated with spores of the fungus the next day, then incubated in an environment conducive to disease development. Disease severity was evaluated 4 to 19 days later, depending on the speed of disease development. […] Each pot contained 3-8 seedlings. These plants were sprayed until wet with the formulated test compound at a rate of 200 ppm. On the following day, the leaves were inoculated with an aqueous spore suspension of Cochliobolus sativus and the plants were kept in high humidity for one to two days to permit spores to germinate and infect the leaf. The plants were then transferred to a greenhouse until disease developed on untreated control plants. The following table presents the activity of typical compounds of the present invention when evaluated in these experiments. The effectiveness of the test compounds in controlling disease was determined by assessing the severity of disease on treated plants, then converting the severity to percent control based on the level of disease on untreated, inoculated plants.

Colletotricum lagenarium = experiment: Cucumber Anthracnose 1-day protectant test (COLLLA); format: in vivo; conditions: Cucumis sativus, topical, 24 h; one-day protectant test, 200 ppm application rate, cucumber plants (variety Bush Champion); read-out: COLLLA control of disease
Procedure: The technical compounds were formulated at 200 ppm in 10 vol. acetone plus 90 vol. Triton X water (deionized water 99.99 wt. % +0.01 wt. Triton X100), giving a “formulated test compound.” The compounds were tested for ability to control plant diseases at the whole plant level in a 1-day protectant test (IDP). Formulated test compounds were applied to plants using a turn table sprayer fitted with two opposing air atomization nozzles which delivered approximately 1500 L/ha of spray volume. Plants were inoculated with spores of the fungus the next day, then incubated in an environment conducive to disease development. Disease severity was evaluated 4 to 19 days later, depending on the speed of disease development. Cucumber Anthracnose (causal agent Colletotricum lagenarium; Bayer code COLLLA): Cucumber plants (variety Bush Champion) were grown from seed in a soilless peat-based potting mixture (Metromix) until the first true leaf was 20-80% expanded. Each pot contained 1 seedling. These plants were sprayed until wet with the formulated test compound at a rate of 200 ppm. On the following day, the leaves were inoculated with an aqueous spore suspension of Colletotricum lagenarium and the plants were kept in high humidity for one day to permit spores to germinate and infect the leaf. The plants were then transferred to a growth chamber until disease developed on untreated control plants. The following table presents the activity of typical compounds of the present invention when evaluated in these experiments. The effectiveness of the test compounds in controlling disease was determined by assessing the severity of disease on treated plants, then converting the severity to percent control based on the level of disease on untreated, inoculated plants.

Leptosphaeria nodorum = experiment: Glume Blotch of Wheat 1-day protectant test (LEPTNO); format: in vivo; conditions: Parastagonospora nodorum, topical, 24 h; one-day protectant test, 200 ppm application rate, wheat plants (variety Yuma); read-out: LEPTINO control of disease
Procedure: The technical compounds were formulated at 200 ppm in 10 vol. acetone plus 90 vol. Triton X water (deionized water 99.99 wt. % +0.01 wt. Triton X100), giving a “formulated test compound.” The compounds were tested for ability to control plant diseases at the whole plant level in a 1-day protectant test (IDP). Formulated test compounds were applied to plants using a turn table sprayer fitted with two opposing air atomization nozzles which delivered approximately 1500 L/ha of spray volume. Plants were inoculated with spores of the fungus the next day, then incubated in an environment conducive to disease development. Disease severity was evaluated 4 to 19 days later, depending on the speed of disease development. Glume Blotch of Wheat (causal agent Leptosphaeria nodorum=Stagnospora nodorum; Bayer code […]): Wheat plants (variety Yuma) were grown from seed in a 50% pasteurized soil/50% soil-less mix until the seedlings had fully expanded first leaf. Each pot contains 3-20 seedlings. These plants were sprayed until wet with the formulated test compound at a rate of 200 ppm. On the following day, the leaves were inoculated with an aqueous spore suspension of Leptosphaeria nodorum and the plants were kept in high humidity (one day in a dark dew chamber followed by four to seven days in a lighted dew chamber) to permit spores to germinate and infect the leaf. The plants were then transferred to a greenhouse until disease developed on untreated control plants. The following table presents the activity of typical compounds of the present invention when evaluated in these experiments. The effectiveness of the test compounds in controlling disease was determined by assessing the severity of disease on treated plants, then converting the severity to percent control based on the level of disease on untreated, inoculated plants.

Puccinia triticina = experiment: Leaf Rust of Wheat 1-day protectant test (PUCCRT); format: in vivo; conditions: topical, 24 h, one-day protectant test, 200 ppm application rate, wheat plants (variety Yuma), read-out: PUCCRT control of disease
Procedure: The technical compounds were formulated at 200 ppm in 10 vol. acetone plus 90 vol. Triton X water (deionized water 99.99 wt. % +0.01 wt. Triton X100), giving a “formulated test compound.” The compounds were tested for ability to control plant diseases at the whole plant level in a 1-day protectant test (IDP). Formulated test compounds were applied to plants using a turn table sprayer fitted with two opposing air atomization nozzles which delivered approximately 1500 L/ha of spray volume. Plants were inoculated with spores of the fungus the next day, then incubated in an environment conducive to disease development. Disease severity was evaluated 4 to 19 days later, depending on the speed of disease development. […] Each pot contained 3-8 seedlings. These plants were sprayed until wet with the formulated test compounds at a rate of 200 ppm. On the following day, the leaves were inoculated with an aqueous spore suspension of Puccinia triticina and the plants were kept in high humidity overnight to permit spores to germinate and infect the leaf. The plants were then transferred to a greenhouse until disease developed on untreated control plants. The following table presents the activity of typical compounds of the present invention when evaluated in these experiments. The effectiveness of the test compounds in controlling disease was determined by assessing the severity of disease on treated plants, then converting the severity to percent control based on the level of disease on untreated, inoculated plants.

Pyricularia oryzae = experiment: whole plant or invertebrate; format: in vivo; conditions: topical, 24 h, read-out: PYRIOR control of disease
Septoria tritici = experiment: Speckled Leaf Blotch of Wheat 1-day protectant test (SEPTTR); format: in vivo; conditions: Zymoseptoria tritici, topical, 24 h; one-day protectant test, 200 ppm application rate, wheat plants (variety Monon); read-out: SEPTTR control of disease
Procedure: The technical compounds were formulated at 200 ppm in 10 vol. acetone plus 90 vol. Triton X water (deionized water 99.99 wt. % +0.01 wt. Triton X100), giving a “formulated test compound.” The compounds were tested for ability to control plant diseases at the whole plant level in a 1-day protectant test (IDP). Formulated test compounds were applied to plants using a turn table sprayer fitted with two opposing air atomization nozzles which delivered approximately 1500 L/ha of spray volume. Plants were inoculated with spores of the fungus the next day, then incubated in an environment conducive to disease development. Disease severity was evaluated 4 to 19 days later, depending on the speed of disease development. Speckled Leaf Blotch of Wheat (Mycosphaerella graminicola=Septoria tritici; Bayer code […]): Wheat plants (variety Monon) were grown from seed in a greenhouse in 50% pasteurized soil/50% soil-less mix until the first true leaf was fully expanded, with 3-8 seedlings per pot. These plants were sprayed until wet with the formulated test compound at a rate of 200 ppm. On the following day, the leaves were inoculated with an aqueous spore suspension of Septoria tritici and the plants were kept in high humidity (one day in a dark dew chamber followed by four to seven days in a lighted dew chamber) to permit spores to germinate and infect the leaf. The plants were then transferred to a greenhouse until disease developed on untreated control plants. The following table presents the activity of typical compounds of the present invention when evaluated in these experiments. The effectiveness of the test compounds in controlling disease was determined by assessing the severity of disease on treated plants, then converting the severity to percent control based on the level of disease on untreated, inoculated plants.

Compound	pest or weed control at 200 ppm (Cochliobolus sativus) [%]	pest or weed control at 200 ppm (Colletotricum lagenarium) [%]	pest or weed control at 200 ppm (Leptosphaeria nodorum) [%]	pest or weed control at 200 ppm (Puccinia triticina) [%]	pest or weed control at 200 ppm (Pyricularia oryzae) [%]	pest or weed control at 200 ppm (Septoria tritici) [%]	melting point [°C]
COCC(C)Nc1cc(-c2ncnc(Nc3cccc(Cl)c3)n2)ccn1 (stereo not drawn) [Compound 1, N-(3-chlorophenyl)-4-{2-[(2-methoxy-1-methylethyl)amino]pyridin-4-yl}-1,3,5-triazin-2-amine]	90 to 100	90 to 100	90 to 100	90 to 100	90 to 100	50 to 89	149 to 151
COC[C@H](C)Nc1cc(-c2ncnc(Nc3cccc(Cl)c3)n2)ccn1 [Compound 2, N-(3-chlorophenyl)-4-(2-{[(1S)-2-methoxy-1-methylethyl]amino}pyridin-4-yl)-1,3,5-triazin-2-amine]	90 to 100	90 to 100	90 to 100	90 to 100	90 to 100	90 to 100	152 to 156
COCC(C)Nc1cc(-c2ncnc(Nc3ccccc3Cl)n2)ccn1 (stereo not drawn) [Compound 3, N-(2-chlorophenyl)-4-{2-[(2-methoxy-1-methylethyl)amino]pyridin-4-yl}-1,3,5-triazin-2-amine]	90 to 100	< 20	21 to 49	50 to 89	50 to 89	21 to 49	139 to 140
COCC(C)Nc1cc(-c2ncnc(Nc3ccc(Cl)cc3)n2)ccn1 (stereo not drawn) [Compound 4, N-(4-chlorophenyl)-4-{2-[(2-methoxy-1-methylethyl)amino]pyridin-4-yl}-1,3,5-triazin-2-amine]	50 to 89	< 20	50 to 89	50 to 89	< 20	50 to 89	198 to 200
CC(C)(C)Nc1cc(-c2ncnc(Nc3cccc(Cl)c3)n2)ccn1 [Compound 5, 4-[2-(tert-butylamino)pyridin-4-yl]-N-(3-chlorophenyl)-1,3,5-triazin-2-amine]	90 to 100	50 to 89	50 to 89	90 to 100	90 to 100	90 to 100	–
CC(COCc1ccccc1)Nc1cc(-c2ncnc(Nc3cccc(Cl)c3)n2)ccn1 (stereo not drawn) [Compound 6, N-(3-chlorophenyl)-4-{2-[(2-(benzyloxy)-1-methylethyl)amino]pyridin-4-yl}-1,3,5-triazin-2-amine]	50 to 89	< 20	50 to 89	90 to 100	< 20	90 to 100	79 to 80
Clc1cccc(Nc2ncnc(-c3ccnc(N4CCCCC4)c3)n2)c1 [Compound 7, N-(3-chlorophenyl)-4-(2-piperidin-1-ylpyridin-4-yl)-1,3,5-triazin-2-amine]	21 to 49	< 20	50 to 89	21 to 49	< 20	50 to 89	168 to 169
Clc1ccc(Nc2ncnc(-c3ccnc(N4CCCCC4)c3)n2)cc1 [Compound 8, N-(4-chlorophenyl)-4-(2-piperidin-1-ylpyridin-4-yl)-1,3,5-triazin-2-amine]	< 20	< 20	50 to 89	< 20	< 20	50 to 89	–
CC1COC(=O)N1c1cc(-c2ncnc(Nc3cccc(Cl)c3)n2)ccn1 (stereo not drawn) [Compound 9]	90 to 100	21 to 49	50 to 89	90 to 100	90 to 100	50 to 89	–
